Measurements as given in patent US10639299B2, “Calcium sensing receptors, ligands, compositions, and methods of use” (Georgia State University Research Foundation, Inc., priority 2016, dated 2020).
Read-outs that look alike come from different tables or passages of the source.

Columns and labels:
[1] = target: T1, CaSR (Homo sapiens, UniProt P41180); set-up: host or cells: HEK cells, transient; settings: HEK cells, in the presence of 150 mM NaCl; read-out: EC50 for intracellular calcium responses; cited from earlier work
T1 sequence (P41180 20-1078): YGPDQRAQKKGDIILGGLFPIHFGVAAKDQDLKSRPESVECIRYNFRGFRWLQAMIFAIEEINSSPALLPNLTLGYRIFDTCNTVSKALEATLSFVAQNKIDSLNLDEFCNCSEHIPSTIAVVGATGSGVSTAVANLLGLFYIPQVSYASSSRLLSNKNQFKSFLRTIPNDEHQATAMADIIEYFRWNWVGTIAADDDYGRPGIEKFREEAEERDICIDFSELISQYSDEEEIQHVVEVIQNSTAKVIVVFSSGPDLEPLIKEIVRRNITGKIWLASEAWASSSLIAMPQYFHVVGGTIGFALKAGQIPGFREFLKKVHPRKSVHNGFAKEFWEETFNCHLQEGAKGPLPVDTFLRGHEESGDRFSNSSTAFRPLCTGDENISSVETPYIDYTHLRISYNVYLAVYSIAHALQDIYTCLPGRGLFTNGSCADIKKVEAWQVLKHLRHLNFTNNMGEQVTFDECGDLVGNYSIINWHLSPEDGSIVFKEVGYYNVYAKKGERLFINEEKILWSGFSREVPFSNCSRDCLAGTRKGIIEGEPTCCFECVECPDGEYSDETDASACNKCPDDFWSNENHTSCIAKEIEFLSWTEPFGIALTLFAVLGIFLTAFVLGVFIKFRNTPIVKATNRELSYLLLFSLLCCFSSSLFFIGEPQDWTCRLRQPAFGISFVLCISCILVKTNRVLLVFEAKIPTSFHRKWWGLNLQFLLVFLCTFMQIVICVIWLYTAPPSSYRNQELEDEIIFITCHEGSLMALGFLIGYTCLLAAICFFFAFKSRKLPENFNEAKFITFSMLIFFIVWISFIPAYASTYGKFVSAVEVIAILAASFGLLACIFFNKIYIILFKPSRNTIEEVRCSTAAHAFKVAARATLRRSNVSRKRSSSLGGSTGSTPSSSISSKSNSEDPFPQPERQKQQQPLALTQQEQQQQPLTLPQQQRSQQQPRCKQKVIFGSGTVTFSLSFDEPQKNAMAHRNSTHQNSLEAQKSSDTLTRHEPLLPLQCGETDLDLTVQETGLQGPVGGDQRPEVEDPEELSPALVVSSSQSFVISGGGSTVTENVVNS

[2] = target: T2, ECD of CaSR (Homo sapiens, UniProt P41180); test: Ca2+ binding to the ECD by Trp fluorescence signal change; settings: for Kd: read-out: Kd, 2-phase Hill equation
T2 construct: made in house; host or cells: HEK293S (GnTI-) suspension culture, secreted
T2 sequence (P41180 20-612): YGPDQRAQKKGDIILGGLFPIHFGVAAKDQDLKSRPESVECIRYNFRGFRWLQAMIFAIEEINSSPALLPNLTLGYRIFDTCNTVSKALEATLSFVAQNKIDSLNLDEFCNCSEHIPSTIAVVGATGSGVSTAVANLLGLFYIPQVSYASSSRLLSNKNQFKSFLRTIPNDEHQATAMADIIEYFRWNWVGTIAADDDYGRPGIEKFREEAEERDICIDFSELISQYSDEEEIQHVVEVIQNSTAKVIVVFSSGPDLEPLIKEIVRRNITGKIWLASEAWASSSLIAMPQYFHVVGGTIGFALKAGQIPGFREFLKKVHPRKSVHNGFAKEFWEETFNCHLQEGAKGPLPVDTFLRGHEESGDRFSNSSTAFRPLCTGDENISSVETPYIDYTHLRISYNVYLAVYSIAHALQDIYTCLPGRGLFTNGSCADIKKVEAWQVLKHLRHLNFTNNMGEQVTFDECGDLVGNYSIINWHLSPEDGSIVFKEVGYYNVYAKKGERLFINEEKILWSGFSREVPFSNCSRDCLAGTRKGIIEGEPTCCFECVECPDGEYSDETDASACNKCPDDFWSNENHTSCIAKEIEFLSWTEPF

[3] = target: T3, CaSR (Bos taurus, UniProt P35384); settings: X. laevis oocytes; cited from earlier work
T3 construct: host or cells: X. laevis oocytes
T3 sequence (P35384 20-1085): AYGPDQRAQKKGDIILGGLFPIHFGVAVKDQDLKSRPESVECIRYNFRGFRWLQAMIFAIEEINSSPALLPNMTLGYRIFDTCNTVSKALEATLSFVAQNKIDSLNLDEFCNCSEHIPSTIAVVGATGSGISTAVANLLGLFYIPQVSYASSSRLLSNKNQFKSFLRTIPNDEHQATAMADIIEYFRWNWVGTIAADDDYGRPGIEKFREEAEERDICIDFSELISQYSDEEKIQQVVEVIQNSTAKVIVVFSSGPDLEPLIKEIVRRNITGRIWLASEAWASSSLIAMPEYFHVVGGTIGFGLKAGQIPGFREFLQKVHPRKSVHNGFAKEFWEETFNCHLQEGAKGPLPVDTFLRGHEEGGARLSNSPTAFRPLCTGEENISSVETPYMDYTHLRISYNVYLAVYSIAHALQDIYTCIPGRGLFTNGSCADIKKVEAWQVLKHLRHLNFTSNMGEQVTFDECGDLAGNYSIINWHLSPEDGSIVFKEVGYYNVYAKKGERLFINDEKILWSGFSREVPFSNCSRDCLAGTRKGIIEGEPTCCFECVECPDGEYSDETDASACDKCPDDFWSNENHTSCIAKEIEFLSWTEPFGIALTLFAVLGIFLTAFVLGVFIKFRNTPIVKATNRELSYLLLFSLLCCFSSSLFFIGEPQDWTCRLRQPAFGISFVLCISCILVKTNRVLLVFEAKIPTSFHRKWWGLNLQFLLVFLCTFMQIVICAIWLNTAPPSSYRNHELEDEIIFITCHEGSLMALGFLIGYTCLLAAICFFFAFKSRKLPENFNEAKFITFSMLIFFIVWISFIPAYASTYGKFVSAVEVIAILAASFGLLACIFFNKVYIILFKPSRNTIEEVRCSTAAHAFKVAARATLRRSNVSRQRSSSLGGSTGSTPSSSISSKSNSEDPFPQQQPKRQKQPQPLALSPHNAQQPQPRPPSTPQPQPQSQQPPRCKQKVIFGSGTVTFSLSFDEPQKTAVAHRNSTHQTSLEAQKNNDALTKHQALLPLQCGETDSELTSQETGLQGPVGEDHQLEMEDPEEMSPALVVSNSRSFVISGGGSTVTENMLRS

[4] = target: T1, CaSR; test: [Ca^2+]i signaling (Fura-2) evoked by [Mg^2+]o/[Ca^2+]o in CaSR-expressing HEK293 cells (5001 cell population assay); format: cell-based; set-up: expressed in transfected cells
Protocol: Measurement of intracellular free Ca^2+ was assessed as described by Huang, et al^33. Briefly, wild type CaSR, or its mutants, were transiently transfected into HEK293 cells grown on coverslips and cultured for 48 h. The cells were subsequently loaded for 15 min using 2 μM Fura-2 AM in 2 mL physiological saline buffer (10 mM HEPES, 140 mM NaCl, 5 mM KCl, 1.0 mM MgCl2 and pH 7.4). The coverslips were mounted in a bath chamber on the stage of a Leica DM6000 fluorescence microscope. The cells were alternately illuminated with 340 or 380 nm light, and the fluorescence at an emission wavelength 510 nm was recorded in real time as the [Ca^2+]o and/or [Mg^2+]o was increased in a stepwise manner in the presence or absence of 0.25 mM TNCA in buffer (10 mM HEPES, 155 mM NaCl, 5 mM KCl, 2 mM NaH2PO4, 0.5 mM MgCl2 and pH 7.4). The ratio of the emitted fluorescence intensities resulting from excitation at both wavelengths was utilized as a surrogate for changes in [Ca^2+]i and was further plotted and analyzed as a function of [Ca^2+]o. All experiments were performed at room temperature. The signals from 20 to 100 single cells were recorded for each measurement. Oscillations were identified as three successive fluctuations in [Ca^2+]i after the initial peak. Determination of the Effect of TNCA on Mg^2+-Evoked [Ca^2+]i Signaling by Stimulation of CaSR in Cell Populations.
Changes in the intracellular Ca^2+ concentration [Ca^2+ ]i elicited by extracellular Mg^2+ ([Mg^2+]o) in a population of cells were measured by fluorimetry as described previously^33. A cell line stably expressing CaSR (designated the “5001 cell line”) was seeded on 13.5×20-mm coverslips and cultured in DMEM. After reaching 95% confluence, cells were washed three times using loading buffer (20 mM HEPES [pH 7.4], 125 mM NaCl, 5 mM KCl, 1.25 mM CaCl2, 1 mM MgCl2, 1 mM NaH2PO4, 1% glucose, and 1% BSA) and subsequently incubated with 4 μM Fura-2 and 4 μM pluronic F127 for 20 minutes at 37° C. to enable sufficient dye loading in the same buffer. After removing the excess Fura-2, coverslips with cells were diagonally positioned in a quartz cuvette filled with 3 ml of experimental buffer (125 mM NaCl, 5 mM KCl, 0.5 mM CaCl2, 0.5 mM MgCl2, 1% glucose, and 1% BSA). Measurements of Fura-2 fluorescence at 510 nm when excited at 340 or 380 nm were performed on a QM1 fluorescence spectrophotometer (PTI). The emission ratio of 340/380 was calculated and used to reflect the changes in [Ca^2+]i when different concentrations of [Mg^2+]o were applied to the cells.
To examine the co-activation of CaSR by TNCA and [Mg^2+]o or [Ca^2+]o, different concentrations of TNCA were placed in the experimental buffer with a fixed concentration of [Ca^2+]o and varying concentrations of [Mg^2+]o, or vice versa, as described in the results section. The effects of other ligands were analyzed by comparing the changes in [Ca^2+ ]i produced by [Mg^2+]o alone or by co-application of Mg^2+ with other ligands. The EC50 of [Mg^2+]o obtained during incubation with various concentrations of TNCA is compared with that observed in the presence of [Mg^2+]o alone. The EC50 changes were plotted as a function of TNCA concentration and the curve was fit to the Hill equation. The activation of CaSR by the TNCA, functioning as a co-agonist with [Mg^2+]o, is indicated by the increasingly leftward-shifted EC50 for [Mg^2+]o as the concentration of TNCA increases (FIG. 6).

[5] = target: T1, CaSR; test: ERK1/2 phosphorylation in 5001 cells stably expressing hCaSR; format: cell-based; set-up: expressed in transfected cells
Protocol: The 5001 cell line stably expressing hCaSR was starved in serum-free DMEM medium supplemented with 0.2% (w/v) BSA overnight, followed by washing 3-times with HBSS and a subsequent 10 minute HBSS incubation after 12 hours. To induce ERK1/2 phosphorylation, varying concentrations of [Mg^2+]o (0-50 mM) or [Ca^2+]o (0-30 mM) with or without 0.5 mM TNCA were added to cells and incubated for 10 minutes at 37° C. The cells were then lysed with Pierce RIPA buffer (ThermoFisher Scientific). Total protein concentration was measured using the BioRad assay. Lysates containing 100 μg of total protein were loaded onto 4-20% gradient SDS-PAGE gels for separation. After electrophoresis, proteins on the gel were transferred to nitrocellulose membranes and further analyzed by western blotting. Anti-phospho-p44/42 ERK (1:1000 dilution) and anti-p44/42 (1:2000) polyclonal antibodies were utilized as probes to detect the phosphorylated ERK1/2 and total ERK1/2 respectively. A chemiluminescent detection method (AP Conjugate Substrate Kit, Bio-Rad) was applied to detect phosphor-ERK1/2 and total-ERK1/2. The respective bands on western blots were evaluated by densitometry. The EC50 of [Mg^2+]o- or [Ca^2+]o-dependent responses were obtained by fitting the [Mg^2+]o or [Ca^2+]o concentration-response curves with the Hill equation (Eq.1).

| co-agonism with [Mg^2+]o in activating [Ca^2+]i oscillations [4] | potency relative to Phe in reducing the EC50 for [Mg^2+]o or [Ca^2+]o activation of [Ca^2+]i signaling ([4]; WT and mutant CaSRs) | EC50 ([4]; determined indirectly through the EC50 change of [Mg^2+]o at different TNCA concentrations, 0.5 mM [Ca^2+]o, read-out: apparent EC50 of TNCA as co-agonist) | activation of the receptor by the exogenous compound alone ([4]; without metal agonist) | co-agonism with [Mg^2+]o in activating ERK1/2 phosphorylation [5] | Compound | EC50 [1] | Hill number, 2-phase Hill equation ([2]; first phase) | Kd ([2]; first phase) | Hill number, 2-phase Hill equation ([2]; second phase) | Kd ([2]; second phase) | EC50 [3] |
| --- | --- | --- | --- | --- | --- | --- | --- | --- | --- | --- | --- |
|  |  |  |  |  | [Ca+2] [Ca^2+, calcium] | 3000 to 5000 µM | 1.1 | 900 µM | 3.8 | 10000 µM | 3000 µM |
| strong co-agonist | greater than 1000 fold | ≥ 2 µM | cannot activate the receptor | strong co-agonist | O=C(O)[C@@H]1Cc2c([nH]c3ccccc23)CN1 [TNCA, L-1,2,3,4-tetrahydronorharman-3-carboxylic acid] |  |  |  |  |  |  |
